The source of these data is article PMC5748833, “Synthesis and Biological Evaluation of Novel Hybrid Molecules Containing Purine, Coumarin and Isoxazoline or Isoxazole Moieties” (The Open Medicinal Chemistry Journal, 2017).

For orientation: IC50 means the point on the concentration scale where inhibition reaches its midpoint.

Several values for one entry are separate records, joined by “and”; a condition that tells them apart may be missing. Identical values can stand only once.

Experiment [1] addresses T1, equine serum butyrylcholinesterase (esBChE) (Equus caballus, UniProt P81908).
T1 construct: purchased Sigma; host or cells: equine serum
Briefly: Inhibition of esBChE (Ellman's test). To be noted: for inhibition at 10 µM: read-out: esBChE % inhibn. @ 10 μΜ. It is filed as biochemical. From the text:
(§1) 2.2.2.5 Inhibition Study on ChEs in vitro
(§2) In vitro inhibition of electric eel acetylcholinesterase (eeAChE; 463 U/mg, Sigma) and equine serum butyrylcholinesterase (esBChE; 13 U/mg, Sigma) was investigated with a 96-well plate procedure based on the classical Ellman’s spectrophotometric test, as already described.

The target in a further experiment is T2, rat monoamine oxidase A (Rattus norvegicus, UniProt P21396).
T2 construct: from tissue
T2 sequence (P21396 1-526): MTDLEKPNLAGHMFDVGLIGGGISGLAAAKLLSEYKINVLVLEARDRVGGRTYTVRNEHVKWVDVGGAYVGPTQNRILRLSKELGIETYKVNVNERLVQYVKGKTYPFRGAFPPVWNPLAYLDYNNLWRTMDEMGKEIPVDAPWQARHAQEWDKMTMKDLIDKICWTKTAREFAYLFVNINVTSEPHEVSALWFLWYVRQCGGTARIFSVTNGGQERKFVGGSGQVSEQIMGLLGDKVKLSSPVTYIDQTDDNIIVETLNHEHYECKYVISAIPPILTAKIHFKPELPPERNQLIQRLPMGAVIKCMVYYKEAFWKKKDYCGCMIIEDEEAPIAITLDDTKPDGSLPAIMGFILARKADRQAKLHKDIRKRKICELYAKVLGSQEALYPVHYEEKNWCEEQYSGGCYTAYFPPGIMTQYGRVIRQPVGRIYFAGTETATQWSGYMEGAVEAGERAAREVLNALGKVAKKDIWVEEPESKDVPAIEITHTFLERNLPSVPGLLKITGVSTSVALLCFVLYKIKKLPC
Nature of the experiment: Inhibition of MAO-A (spectrofluorimetric method). It is filed as biochemical. The note with it: 10 μM compound. From the text: (§3) 2.2.2.6 Inhibition Study on MAOs in vitro
(§4) Inhibition of rat monoamine oxidase A and B was studied by means of a spectrofluorimetric method as previously detailed.

Experiment [2] in a line: Inhibition of linoleic acid lipid peroxidation (AAPH). To be noted: 100 μM compound, 37°C. The protocol: 2.2.2.3 Inhibition of linoleic acid lipid peroxidation
Production of conjugated diene hydroperoxide by oxidation of linoleic acid sodium salt in an aqueous solution was monitored at 234 nm. 2,2’-Azobis(2-amidinopropane) dihydrochloride (AAPH) was used as a free radical initiator. 10 μl of the 16 mM linoleic acid sodium salt solution was added to the UV cuvette containing 0.93 ml of 0.05 M phosphate buffer, pH 7.4 prethermostated at 37°C. The oxidation reaction was initiated at 37°C under air by the addition of 50 μl of 40 mM AAPH solution. Oxidation was carried out in the presence of 10 μl of the examined compounds (stock solution in DMSO). In the assay without antioxidant, lipid oxidation was measured in the presence of the same level of DMSO. The rate of oxidation at 37°C was monitored by recording the increase in absorption at 234 nm caused by conjugated diene hydroperoxides (Table 5). Trolox was used as a standard.
Anti-lipid peroxidation activity. The water-soluble azo compound AAPH has been extensively used as a clean and controllable source of thermally produced alkyl peroxyl free radicals, through spontaneous thermal decomposition. […] In the AAPH assay, the highly reactive alkylperoxyl radicals are intercepted mainly by a hydrogen atom transfer (HAT) from the antioxidant.

For experiment [3], the target named is T3, electric eel acetylcholinesterase (eeAChE) (Electrophorus electricus, UniProt O42275).
T3 construct: purchased Sigma
T3 sequence (O42275 24-633): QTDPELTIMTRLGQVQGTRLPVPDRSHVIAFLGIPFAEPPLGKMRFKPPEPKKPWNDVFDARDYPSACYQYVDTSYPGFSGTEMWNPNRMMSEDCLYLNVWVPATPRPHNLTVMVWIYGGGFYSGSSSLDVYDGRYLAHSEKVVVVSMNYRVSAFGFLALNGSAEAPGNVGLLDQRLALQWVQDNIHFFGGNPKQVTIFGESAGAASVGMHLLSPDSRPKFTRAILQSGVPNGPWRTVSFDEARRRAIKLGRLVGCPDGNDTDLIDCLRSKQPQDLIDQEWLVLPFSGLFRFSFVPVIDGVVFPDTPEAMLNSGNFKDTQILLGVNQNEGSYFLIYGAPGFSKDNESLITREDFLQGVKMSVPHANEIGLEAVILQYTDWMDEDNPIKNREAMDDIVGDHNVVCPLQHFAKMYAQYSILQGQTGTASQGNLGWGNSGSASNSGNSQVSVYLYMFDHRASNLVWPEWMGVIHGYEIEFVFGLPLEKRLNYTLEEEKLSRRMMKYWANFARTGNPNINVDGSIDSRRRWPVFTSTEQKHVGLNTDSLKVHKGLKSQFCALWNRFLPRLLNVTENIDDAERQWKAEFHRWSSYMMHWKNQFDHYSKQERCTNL
Nature of the experiment: biochemical. It is filed as biochemical. To be noted: for IC50: read-out: eeAChE IC50 μΜ; for inhibition at 10 µM: read-out: eeAChE % inhibn. @ 10 μΜ.
Source text: as §1, §2

A further experiment addresses T4, soybean lipoxygenase (Glycine max, UniProt P08170).
T4 construct: purchased Sigma Chemical, Co. (St. Louis, MO, USA)
T4 sequence (P08170 1-839): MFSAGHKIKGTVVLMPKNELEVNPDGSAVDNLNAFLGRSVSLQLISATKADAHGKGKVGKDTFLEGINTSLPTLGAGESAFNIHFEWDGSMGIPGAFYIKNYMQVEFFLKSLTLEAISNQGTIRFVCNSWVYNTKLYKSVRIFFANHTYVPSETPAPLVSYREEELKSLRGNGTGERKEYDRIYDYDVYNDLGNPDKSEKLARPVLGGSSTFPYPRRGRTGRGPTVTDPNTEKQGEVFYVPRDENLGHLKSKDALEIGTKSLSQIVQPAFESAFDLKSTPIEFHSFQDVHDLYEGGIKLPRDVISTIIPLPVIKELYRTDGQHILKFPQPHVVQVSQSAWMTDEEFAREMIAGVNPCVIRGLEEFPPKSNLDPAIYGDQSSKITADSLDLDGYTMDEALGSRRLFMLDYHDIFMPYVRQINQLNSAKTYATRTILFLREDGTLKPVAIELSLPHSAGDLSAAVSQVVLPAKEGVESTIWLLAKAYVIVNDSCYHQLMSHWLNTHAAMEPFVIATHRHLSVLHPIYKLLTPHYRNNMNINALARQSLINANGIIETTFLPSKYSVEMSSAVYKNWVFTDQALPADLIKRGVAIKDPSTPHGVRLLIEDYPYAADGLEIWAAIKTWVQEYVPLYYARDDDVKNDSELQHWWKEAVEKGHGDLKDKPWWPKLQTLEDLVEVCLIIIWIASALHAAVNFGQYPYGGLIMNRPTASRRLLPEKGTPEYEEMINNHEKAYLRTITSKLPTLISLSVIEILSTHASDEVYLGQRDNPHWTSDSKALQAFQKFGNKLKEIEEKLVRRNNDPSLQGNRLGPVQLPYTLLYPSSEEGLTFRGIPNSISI
Nature of the experiment: Soybean lipoxygenase inhibition in vitro. It is filed as biochemical. To be noted: for IC50: read-out: LOX IC50 μΜ; for inhibition at 100 µM: read-out: %LOX @ 100μΜ; for %LOX @ 100μΜ: 100 μM compound. The protocol:
2.2.2.4 Soybean lipoxygenase inhibition study in vitro [14]
In vitro study was evaluated as reported previously. The tested compounds dissolved in ethanol were incubated at room temperature with sodium linoleate (0.1 mM) and 0.2 ml of enzyme solution (1/9 x10^-4 w/v in saline). […] Several concentrations were used for the determination of IC50 values (Table 5).
LO is the key enzyme in leukotriene biosynthesis. Leukotrienes derived from the biotransformation of arachidonic acid catalyzed by 5-lipoxygenase (5-LO), are important inflammatory mediators implicated in several diseases. LOs play a role in membrane lipid peroxidation by forming hydroperoxides in the lipid bilayer. […] Most of the LO inhibitors are antioxidants or free radical scavengers, since lipoxygenation occurs via a carbon-centered radical. The evaluation of the novel coumarin hybrids against soybean lipoxygenase LO was accomplished by the UV-based enzyme assay.

Another experiment concerns the target T5, rat monoamine oxidase B (Rattus norvegicus, UniProt P19643).
T5 construct: from tissue
T5 sequence (P19643 1-520): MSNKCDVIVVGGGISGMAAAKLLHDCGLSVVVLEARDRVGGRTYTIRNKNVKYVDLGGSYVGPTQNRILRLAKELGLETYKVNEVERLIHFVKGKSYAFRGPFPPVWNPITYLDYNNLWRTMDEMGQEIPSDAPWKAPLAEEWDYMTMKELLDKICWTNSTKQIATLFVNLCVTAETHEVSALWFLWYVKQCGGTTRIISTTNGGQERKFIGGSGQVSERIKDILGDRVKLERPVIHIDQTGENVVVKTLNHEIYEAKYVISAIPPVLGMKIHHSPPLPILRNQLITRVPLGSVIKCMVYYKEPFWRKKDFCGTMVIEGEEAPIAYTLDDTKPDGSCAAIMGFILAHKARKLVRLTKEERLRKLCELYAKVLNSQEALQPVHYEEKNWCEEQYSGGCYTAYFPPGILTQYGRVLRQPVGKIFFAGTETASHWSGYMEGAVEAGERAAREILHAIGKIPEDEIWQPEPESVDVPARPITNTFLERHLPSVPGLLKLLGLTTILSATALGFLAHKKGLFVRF
Briefly: Inhibition of MAO-B (spectrofluorimetric method). It is filed as biochemical. To be noted: 10 μM compound.
Source text: as §3, §4

Experiment [4] is described as follows: Reducing activity of the stable radical DPPH. To be noted: 100 μM compound, after 20 min. The protocol: 2.2.2.1 Determination of the reducing activity of the stable radical 1, 1-diphenyl-picrylhydrazyl (DPPH)
To a solution of DPPH (100μM) in absolute ethanol an equal volume of the compounds dissolved in ethanol was added. As control solution ethanol was used. The concentration of the solutions of the compounds was 100μM. After 20 and 60 min at room temperature the absorbance was recorded at 517 nm (Table 5). NDGA was used as a standard.
The compounds were studied for their antioxidant activity by the use of the stable 2,2-diphenyl-1-picrylhydrazyl radical (DPPH) at concentration 0.1mM after 20 min. […] This purple colour generally disappears in the presence of an antioxidant. The reduction of absorbance is a measure of the free DPPH due to the action of the antioxidant. The antioxidant activity was expressed as the RA% (Reducing Activity). […] Within the group of derivatives 4 the presence of the morpholinyl or piperidinyl rings at position A as well as the carbonyl group at position B, hinder the interaction of the compounds to the free stable radical DPPH.
For orientation: The DPPH test is a chemical assay of radical scavenging.

T1 sequence (P81908 whole entry): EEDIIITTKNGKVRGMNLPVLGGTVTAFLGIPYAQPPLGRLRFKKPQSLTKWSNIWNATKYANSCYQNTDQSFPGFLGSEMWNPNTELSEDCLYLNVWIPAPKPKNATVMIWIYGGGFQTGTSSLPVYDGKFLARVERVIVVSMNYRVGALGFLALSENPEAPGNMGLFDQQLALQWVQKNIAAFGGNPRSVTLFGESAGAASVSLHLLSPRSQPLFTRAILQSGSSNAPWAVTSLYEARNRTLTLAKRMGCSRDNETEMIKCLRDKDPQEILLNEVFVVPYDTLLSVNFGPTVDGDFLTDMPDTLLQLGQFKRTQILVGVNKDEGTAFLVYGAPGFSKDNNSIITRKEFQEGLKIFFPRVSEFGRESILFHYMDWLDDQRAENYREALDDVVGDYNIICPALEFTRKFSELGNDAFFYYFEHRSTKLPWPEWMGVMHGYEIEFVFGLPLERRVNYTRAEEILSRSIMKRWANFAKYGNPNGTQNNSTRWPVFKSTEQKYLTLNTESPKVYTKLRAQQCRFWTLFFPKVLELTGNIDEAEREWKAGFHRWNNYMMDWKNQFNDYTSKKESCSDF

For `Cc1cc(=O)oc2ccc(OCC3CC(Cn4cnc5c(N6CCOCC6)ncnc54)=NO3)cc12` (stereo not drawn) [4b], the inhibition at 10 µM in experiment [1] was determined as 17%. Moreover, the “MAO-A (%) @ 10μΜ” value at rat monoamine oxidase A is recorded as “no”. The “LP % @ 100μΜ (inhibition of lipid peroxidation)” value in experiment [2] is “no”. Besides, the IC50 turned out to be 2.3 µM in experiment [3] and 60 µM at soybean lipoxygenase. Besides, the “MAO-B (%) @ 10μΜ” value on rat monoamine oxidase B is reported as 24%.

On to `Cc1cc(=O)oc2cc(OCCC3CC(Cn4cnc5c(N6CCOCC6)ncnc54)=NO3)ccc12` (stereo not drawn) [4i], for which the inhibition at 10 µM in experiment [1] came to 15%. For the same compound, the “MAO-A (%) @ 10μΜ” value on rat monoamine oxidase A turned out to be 25%. Also, the “LP % @ 100μΜ (inhibition of lipid peroxidation)” value in experiment [2] was 54%. For the same compound, the half-maximal inhibitory concentration (IC50) in experiment [3] came to 7.7 µM. At soybean lipoxygenase, the inhibition at 100 µM worked out at 2%. On rat monoamine oxidase B, the “MAO-B (%) @ 10μΜ” value was “no”.

Regarding `Cc1cc(=O)oc2cc(OCC3=NOC(Cn4cnc5c(Cl)ncnc54)C3)ccc12` (stereo not drawn) [11e], the inhibition at 10 µM in experiment [1] came out at 8%. Moreover, the “MAO-A (%) @ 10μΜ” value on rat monoamine oxidase A was “no”. The “LP % @ 100μΜ (inhibition of lipid peroxidation)” value in experiment [2] is 63%. Besides, the IC50 in experiment [3] stood at 7.8 µM. In addition, the “%LOX @ 100μΜ” value on soybean lipoxygenase is listed as “no”. Also, the “MAO-B (%) @ 10μΜ” value at rat monoamine oxidase B amounted to 9%.

As for `Cc1cc(=O)oc2cc(OCC3=NOC(Cn4cnc5c(N6CCOCC6)ncnc54)C3)ccc12` (stereo not drawn) [11f], the inhibition at 10 µM worked out at 14% in experiment [1] and 43% in experiment [3]. At rat monoamine oxidase A, the “MAO-A (%) @ 10μΜ” value turned out to be 16%. In addition, in experiment [2], the “LP % @ 100μΜ (inhibition of lipid peroxidation)” value turned out to be 48%. In addition, at soybean lipoxygenase, the “%LOX @ 100μΜ” value is “no”. The “MAO-B (%) @ 10μΜ” value at rat monoamine oxidase B was 8%.

Regarding `Cc1cc(=O)oc2ccc(OCc3cc(Cn4cnc5c(N6CCCCC6)ncnc54)no3)cc12` [13a, 4-methyl-6-({3-[(6-piperidin-1-yl-9H-purin-9-yl)methyl]isoxazol-5-yl}methoxy)-2H-chromen-2-one], the inhibition at 10 µM in experiment [1] amounted to 23%; in experiment [3], 40%. The “MAO-A (%) @ 10μΜ” value on rat monoamine oxidase A amounted to 47%. Moreover, at soybean lipoxygenase, the “%LOX @ 100μΜ” value is listed as “no”. Moreover, in experiment [4], the “RA% @ 100μΜ (reducing activity, DPPH)” value is “no”. Also, the “MAO-B (%) @ 10μΜ” value on rat monoamine oxidase B came out at 33%.

Turning to `Cc1cc(=O)oc2ccc(OCc3cc(Cn4cnc5c(N6CCOCC6)ncnc54)no3)cc12` [13b], in experiment [1], the inhibition at 10 µM is 13%. In addition, on rat monoamine oxidase A, the “MAO-A (%) @ 10μΜ” value came out at 12%. The IC50 in experiment [3] worked out at 3.1 µM. Moreover, at soybean lipoxygenase, the inhibition at 100 µM was 44%. The “RA% @ 100μΜ (reducing activity, DPPH)” value in experiment [4] is recorded as “no”. In addition, the “MAO-B (%) @ 10μΜ” value at rat monoamine oxidase B is given as “no”.

On to `O=c1ccc2ccc(OCc3cc(Cn4cnc5c(N6CCCCC6)ncnc54)no3)cc2o1` [13e], for which the IC50 was 18 µM in experiment [1] (read-out: esBChE IC50 μΜ); 1.73 µM in experiment [3]; 62.5 µM and 62 µM at soybean lipoxygenase. On rat monoamine oxidase A, the “MAO-A (%) @ 10μΜ” value came to 18%. In experiment [4], the “RA% @ 100μΜ (reducing activity, DPPH)” value is recorded as “no”. In addition, on rat monoamine oxidase B, the “MAO-B (%) @ 10μΜ” value is listed as 15%.
